Test results taken from patent EP4722219A1 (Gan & Lee Pharmaceuticals Co., Ltd., priority 2023, dated 2024).

Assays:
[1] = system: T-47D cells; assay: Inhibition of cell proliferation in T-47D cells (CCK-8); type: cell-based; settings: 6 days treatment, CCK-8 cell viability
Procedure: Test Example 2 Inhibitory effect of PROTAC compounds provided by the present invention on cell proliferation in T-47D cells
The complete culture medium required for T-47D cells is 1640 (ATCC, Product number: A10491-01) basal culture medium containing 10% fetal bovine serum. T-47D cells were seeded in 96-well plates at a density of 3,000 cells/well, and different concentrations of PROTAC compounds 1-55 provided in the examples of the present invention and positive control sample ARV-471 (source: Inokai) were prepared to treat the cells and incubated at 37 °C, 5% CO2 cell culture incubator for 6 days. According to the manufacturer's instructions, cell viability was detected using a CCK-8 kit (Beyotime, Product number: C0040). The IC50 of each compound after treating for 6 days was calculated using GraphPadPrism software based on the inhibition rate. Table 2 Inhibition IC50 value of T-47D cell proliferation by PROTAC compounds provided by the present invention and positive control sample

[2] = system: MCF-7 cells; assay: Inhibition of cell proliferation in MCF-7 cells (CCK-8); type: cell-based; settings: MCF-7 cell proliferation, 6 days treatment
Procedure: Test Example 3 Inhibitory effect of PROTAC compounds provided by the present invention on cell proliferation in MCF-7 cells
The complete culture medium required for MCF-7 cells (source ATCC) is DMEM (gibco, Product number: 11995-065) basal culture medium containing 10% fetal bovine serum. MCF-7 cells were seeded in 96-well plates at a density of 800 cells/well, and different concentrations of PROTAC compounds 1-55 provided in the examples of the present invention and positive control sample ARV-471 (source: Inokai) were prepared to treat the cells and incubated at 37 °C, 5% CO2 cell culture incubator for 6 days. According to the manufacturer's instructions, cell viability was detected using a CCK-8 kit (Beyotime, Product number: C0040). The IC50 of each PROTAC compound after treating for 6 days was calculated using GraphPadPrism software based on the inhibition rate. Table 3 Inhibition IC50 value of MCF-7 cell proliferation by PROTAC compounds of the present invention and positive control sample

Row | SMILES | IC50 ([1]; Homo sapiens, T47D, 144 h) | IC50 ([2]; Homo sapiens, MCF7, 144 h) | IC50 [1] | IC50 [2]
1 | CN(CC(=O)N1CCC2(CC1)CCC1(CC2)COc2c1ccc1c2CN(C2CCC(=O)NC2=O)C1=O)C1CCC2(CC1)CN(c1ccc([C@@H]3c4ccc(O)cc4CC[C@@H]3c3ccccc3)cc1)C2 (stereo partly drawn) [ER-P-71, 3-(1"-(N-(2-(4-((1R,2S)-6-hydroxy-2-phenyl-1,2,3,4-tetrahydronaphthalen-1-yl)phenyl)-2-azaspiro[3.5]nonan-7-yl)-N-methylglycyl)-6-oxo-6,8-dihydro-2H,7H-dipyridole[furo[2,3-e]isoindole-3,1'-cyclohexane-4',4"-piperidin]-7-yl)piperidine-2,6-dione] | 8.54 nM | 2.02 µM | – | –
2 | CN(CC(=O)N1CC2(CCC3(CC2)COc2c3ccc3c2CN(C2CCC(=O)NC2=O)C3=O)C1)C1CCC2(CC1)CN(c1ccc([C@@H]3c4ccc(O)cc4CC[C@@H]3c3ccccc3)cc1)C2 (stereo partly drawn) [ER-P-72, 3-(1-(N-(2-(4-((1R,2S)-6-hydroxy-2-phenyl-1,2,3,4-tetrahydronaphthalen-1-yl)phenyl)-2-azaspiro[3.5]nonan-7-yl)-N-methylglycyl)-6"-oxo-6",8"-dihydro-2"H,7"H-dipyridole[azetidine-3,1'-cyclohexane-4',3"-furo[2,3-e]isoindol]-7"-yl)piperidine-2,6-dione] | 1.34 nM | 14.3 µM | – | –
3 | Cn1c(=O)n(C2CCC(=O)NC2=O)c2ccc3c(c21)OCC31CCN(CC2CCN(c3ccc([C@@H]4c5ccc(O)cc5CC[C@@H]4c4ccccc4)cc3)CC2)CC1 (stereo partly drawn) [ER-P-73, 3-(1'-((1-(4-((1R,2S)-6-hydroxy-2-phenyl-1,2,3,4-tetrahydronaphthalen-1-yl)phenyl)piperidin-4-yl)methyl)-1-methyl-2-oxo-1,2-dihydro-3H,7H-spiro[benzofuro[6,7-d]imidazole-6,4'-piperidin]-3-yl)piperidine-2,6-dione] | 49.4 nM | 3.27 µM | – | –
4 | Cn1c(=O)n(C2CCC(=O)NC2=O)c2ccc3c(c21)OCC31CCN(C(=O)C2CCN(CC3CCN(c4ccc([C@@H]5c6ccc(O)cc6CC[C@@H]5c5ccccc5)cc4)CC3)CC2)CC1 (some centres unmarked) [ER-P-74] | 1.22 nM | 2.1 µM | – | –
5 | CN(CC(=O)N1CCC2(CC1)COc1c2ccc2c1n(C)c(=O)n2C1CCC(=O)NC1=O)CC1CCN(c2ccc([C@@H]3c4ccc(O)cc4CC[C@@H]3c3ccccc3)cc2)CC1 (stereo partly drawn) [ER-P-75, 3-(1'-(N-((1-(4-((1R,2S)-6-hydroxy-2-phenyl-1,2,3,4-tetrahydronaphthalen-1-yl)phenyl)piperidin-4-yl)methyl)-N-methylglycyl)-1-methyl-2-oxo-1,2-dihydro-3H,7H-spiro[benzofuro[6,7-d]imidazole-6,4'-piperidin]-3-yl)piperidine-2,6-dione] | 1.16 nM | 3 µM | – | –
6 | O=C1CCC(N2Cc3c(ccc4c3OCC43CCC4(CCN(C(=O)C5CCN(c6ccc([C@@H]7c8ccc(O)cc8CC[C@@H]7c7ccccc7)cc6)CC5)CC4)CC3)C2=O)C(=O)N1 (stereo partly drawn) [ER-P-76, 3-(1"-(1-(4-((1R,2S)-6-hydroxy-2-phenyl-1,2,3,4-tetrahydronaphthalen-1-yl)phenyl)piperidine-4-carbonyl)-6-oxo-6,8-dihydro-2H,7H-dipyridole[furo[2,3-e]isoindole-3,1'-cyclohexane-4',4"-piperidin]-7-yl)piperidine-2,6-dione] | 5.75 nM | > 100 µM | – | –
7 | Cn1c(=O)n(C2CCC(=O)NC2=O)c2ccc3c(c21)C1(CCN(C2CCN(C(=O)C4CCN(c5ccc([C@@H]6c7ccc(O)cc7CC[C@@H]6c6ccccc6)cc5)CC4)CC2)CC1)CO3 (stereo partly drawn) [ER-P-77, 3-(1'-(1-(4-(((1R,2S)-6-hydroxy-2-phenyl-1,2,3,4-tetrahydronaphthalen-1-yl)phenyl)piperidine-4-carbonyl)piperidin-4-yl)-1-methyl-2-oxo-1,2-dihydro-3H,7H-spiro[benzofuro[4,5-d]imidazole-8,4'-piperidin]-3-yl)piperidine-2,6-dione] | 1.87 nM | 0.0847 µM | – | –
8 | O=C1CCC(N2Cc3c(ccc4c3OCC43CCC4(CC3)CN(CC3CCC(OC5CCN(c6ccc([C@@H]7c8ccc(O)cc8CC[C@@H]7c7ccccc7)cc6)CC5)CC3)C4)C2=O)C(=O)N1 (stereo partly drawn) [ER-P-78, 3-(1-(((1S,4S)-4-((1-(4-((1R,2S)-6-hydroxy-2-phenyl-1,2,3,4-tetrahydronaphthalen-1-yl)phenyl)piperidin-4-yl)oxy)cyclohexyl)methyl)-6"-oxo-6'',8''-dihydro-2"H,7"H-dipyrine[azetidine-3,1'-cyclohexane-4',3"-furo[2,3-e]isoindol]-7"-yl)piperidine-2,6-dione] | – | – | 5.8 nM | 0.737 µM
9 | O=C1CCC(N2Cc3c(ccc4c3OCC43CCC4(CCN(C[C@H]5CC[C@@H](OC6CCN(c7ccc([C@@H]8c9ccc(O)cc9CC[C@@H]8c8ccccc8)cc7)CC6)CC5)CC4)CC3)C2=O)C(=O)N1 (stereo partly drawn) [ER-P-79, 3-(1"-(((1S,4S)-4-((1-(4-((1R,2S)-6-hydroxy-2-phenyl-1,2,3,4-tetrahydronaphthalen-1-yl)phenyl)piperidin-4-yl)oxy)cyclohexyl)methyl)-6-oxo-6,8-dihydro-2H,7H-dispiro[furo[2,3-e]isoindole-3,1'-cyclohexane-4',4"-piperidin]-7-yl)piperidine-2,6-dione] | – | – | 8.46 nM | 0.0634 µM
10 | Cn1c(=O)n(C2CCC(=O)NC2=O)c2cc3c(cc21)OC1(CC3)CCN(CC2CC(OC3CCN(c4ccc([C@@H]5c6ccc(O)cc6CC[C@@H]5c5ccccc5)cc4)CC3)C2)CC1 (stereo partly drawn) [ER-P-81, 3-(1'-(((1S,3s)-3-((1-(4-((1R,2S)-6-hydroxy-2-phenyl-1,2,3,4-tetrahydronaphthalen-1-yl)phenyl)piperidin-4-yl)oxy)cyclobutyl)methyl)-3-methyl-2-oxo-2,3,7,8-tetrahydro-1H-spiro[chromeno[6,7-d]imidazole-6,4'-piperidin]-1-yl)piperidine-2,6-dione] | – | – | 2.57 nM | 0.0016 µM
11 | O=C1CC[C@H](NC(=O)c2ccc3c(c2F)OCC32CCN(CC3CCC(OC4CCN(c5ccc([C@@H]6c7ccc(O)cc7CC[C@@H]6c6ccccc6)cc5)CC4)CC3)CC2)C(=O)N1 (stereo partly drawn) [ER-P-82, N-((S)-2,6-dioxopiperidin-3-yl)-7-fluoro-1'-(((1S,4R)-4-((1-(4-((1R,2S)-6-hydroxy-2-phenyl-1,2,3,4-tetrahydronaphthalen-1-yl)phenyl)piperidin-4-yl)oxy)cyclohexyl)methyl)-2H-spiro[benzofuran-3,4'-piperidine]-6-carboxamide] | – | – | 28.1 nM | 4.39 µM
12 | O=C1CC[C@H](NC(=O)c2cc3c(cc2F)OCC32CCN(CC3CCC(OC4CCN(c5ccc([C@@H]6c7ccc(O)cc7CC[C@@H]6c6ccccc6)cc5)CC4)CC3)CC2)C(=O)N1 (stereo partly drawn) [ER-P-83, N-((S)-2,6-dioxopiperidin-3-yl)-6-fluoro-1'-(((1S,4R)-4-((1-(4-((1R,2S)-6-hydroxy-2-phenyl-1,2,3,4-tetrahydronaphthalen-1-yl)phenyl)piperidin-4-yl)oxy)cyclohexyl)methyl)-2H-spiro[benzofuran-3,4'-piperidine]-5-carboxamide] | – | – | 138 nM | 4.33 µM
13 | COc1cc2c(cc1C(=O)N[C@H]1CCC(=O)NC1=O)OCC21CCN(CC2CCC(OC3CCN(c4ccc([C@@H]5c6ccc(O)cc6CC[C@@H]5c5ccccc5)cc4)CC3)CC2)CC1 (stereo partly drawn) [ER-P-84, N-((S)-2,6-dioxopiperidin-3-yl)-1'-(((1S,4R)-4-((1-(4-((1R,2S)-6-hydroxy-2-phenyl-1,2,3,4-tetrahydronaphthalen-1-yl)phenyl)piperidin-4-yl)oxy)cyclohexyl)methyl)-5-methoxy-2H-spiro[benzofuran-3,4'-piperidine]-6-carboxamide] | – | – | 17.7 nM | 8.33 µM
14 | O=C1CC[C@H](NC(=O)c2c(F)ccc3c2OCC32CCN(CC3CCC(OC4CCN(c5ccc([C@@H]6c7ccc(O)cc7CC[C@@H]6c6ccccc6)cc5)CC4)CC3)CC2)C(=O)N1 (some centres unmarked) [ER-P-86] | – | – | 68.8 nM | 6.67 µM
15 | O=C1CCC(NC(=O)c2cc3c(cc2F)C2(CCN(CC4CCC(OC5CCN(c6ccc(C7c8ccc(O)cc8CCC7c7ccccc7)cc6)CC5)CC4)CC2)CO3)C(=O)N1 [ER-P-87, N-((S)-2,6-dioxopiperidin-3-yl)-5-fluoro-1'-(((1S,4R)-4-((1-(4-((1R,2S)-6-hydroxy-2-phenyl-1,2,3,4-tetrahydronaphthalen-1-yl)phenyl)piperidin-4-yl)oxy)cyclohexyl)methyl)-2H-spiro[benzofuran-3,4'-piperidine]-6-carboxamide] | 53 nM | 4 µM | – | –
16 | COc1cc2c(cc1C(=O)NC1CCC(=O)NC1=O)CCC1(CCN(CC3CCC(OC4CCN(c5ccc(C6c7ccc(O)cc7CCC6c6ccccc6)cc5)CC4)CC3)CC1)O2 (centres unmarked) [ER-P-88] | 9.59 nM | 1.03 µM | – | –
